Assay results published in patent US20250025440A1, “COMPOSITIONS AND METHODS FOR MANAGEMENT OF HUMAN PAPILLOMA VIRUS-ASSOCIATED CANCERS” (LOMA LINDA UNIVERSITY, priority 2021, published 2025).
Like-named read-outs stand apart in the source and are kept apart here.

Tests used:
[1] = system: SCC104 (HPV+ HNSCC cell line); assay: MTT cell viability of gambogic acid analogs; type: cell-based; conditions: for rank among highest IC50s relative to the parent compound: SCC104, MTT
Description: Next, the analogs were evaluated for functional activity using the HPV^+ HNSCC cell line, SCC104, in the MTT assay as described previously to determine whether similar findings would be observed as in the in vitro AlphaScreen™ analysis. With one exception, the patterns were similar to the AlphaScreen™ data, but the differences were relatively more pronounced in the cell-based screen (FIG. 6B). […] Based on these findings, 30-hydroxygambogic acid (GA-OH) was selected as a candidate for more extensive functional studies.
(§1) Using the SciFinder and Zinc15 databases, several gambogic acid structural analogs were identified and selected. The 8 analogs were obtained as follow: gambogenic amide (Enzo Life Sciences), gambogenic acid (Selleckchem), morellic acid (Aobious), 30-hydroxy gambogic acid (Quality Phytochemicals, LLC), acetyl gambogic acid (Microsource), and gambogin, neogambogic acid and isomorellinol (MolPort Natural Products). Additional gambogic acid was purchased from Tocris. The interactions of the analogues with E6-caspase 8 was tested using AlphaScreen™ technology using the same protocol as with the primary screen, and were compared to the parent compound. The effect on cell viability was also similarly done in HPV^+ and HPV^− cell lines via the MTT assay (see below) and potency was determined using GraphPad IC50 curve fitting.
(§2) All working concentrations were diluted in PBS to the desired concentration before use. To test the effect of gambogic acid and/or its derivatives on cell viability, all cell lines were seeded at 2×10^4 per well in 96-well plates and allowed to adhere overnight. Various concentrations of the analogues were added and the cells incubated at 37° C. for 24 hr. Viability was then measured using the MTT assay, performed as described previously. All experiments were repeated at least three times (three biological replicates, carried out on different days). Data presented are from a representative experiment. Cell viability and potency were assessed from % inhibition relative to the vehicle control, and IC50 dose curves were generated using GraphPad Prism.

[2] = target: T1, full-length HPV E6 binding to human Caspase 8 (Human papillomavirus type 16, UniProt P03126); conditions: for inhibition of E6-caspase 8 binding relative to GA: SAR analogs
T1 construct: made in house; host or cells: E. coli
T1 sequence (P03126 whole entry): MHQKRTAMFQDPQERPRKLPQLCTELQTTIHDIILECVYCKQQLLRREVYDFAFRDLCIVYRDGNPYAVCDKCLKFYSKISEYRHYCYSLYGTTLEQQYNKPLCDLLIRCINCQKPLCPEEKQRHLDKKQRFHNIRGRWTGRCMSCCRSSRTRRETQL
Description: Three structurally diverse libraries (Prestwick library, Microsource Spectrum library and an in-house collection at Kansas University; see Table 1) were screened for the ability of compounds to inhibit the binding of full-length HPV E6 to human Caspase 8 using a previously optimized AlphaScreen™ protocol.
The compounds were diluted to a working concentration in DMSO and screened at a single-point final concentration of 10 μM with no replicates. Briefly, 75 nL of each compound was transferred and added to wells of the destination 384-well plate using the Echo dispenser to 4 μL of blocking solution. 4 μL of 800 nM GST-E6 and 4 μL of His6-Caspase 8 were added and pre-incubated at room temperature for 60 minutes. 8 μL of the donor and acceptor bead mixture (final concentration of 20 μg/ml) was then added. The plates were sealed and incubated for 4 hours at room temperature before the plates were read using the Envision™ Multi-Label plate reader (Perkin Elmer Inc.). […] A 10-point serial dilution of these compounds was done for dose-dependency reconfirmation. Dose response inhibition curves were constructed and IC50 calculated using GraphPad Prism using four parameter non-linear regression analysis.
The first counter-screen assay was based using the GST-His6 fusion peptide as the E6-binding partner instead of GST-E6-His6-Caspase 8. Hit candidate compounds from the primary screen were prepared using a 6-point serial dilution. Using an Echo dispenser, compounds were transferred to plates containing 4 μL of blocking buffer. 8 μL of 5 nM GST-His6 peptide substrate was then added. The mixture was pre-incubated at room temperature for 60 minutes. Glutathione donor and nickel chelate acceptor beads (final concentration 20 μg/mL) were added and incubated for another 60 minutes at room temperature. Dose-dependency of the compounds using GST-E6-His6-Caspase 8 was performed in parallel using the same protocol as in the primary screen. The signals were then read using the Envision™ plate reader.
as §1

[3] = target: T2, E6 binding to E6AP (GST-E6 and His6-E6AP) (Human papillomavirus type 16, UniProt P03126); assay: AlphaScreen E6-E6AP binding (cross-validation); conditions: head to head comparison gambogic acid vs myricetin; read-out: IC50 against E6-E6AP
T2 construct: made in house; host or cells: E. coli (stated for GST-E6 only)
T2 sequence (P03126 whole entry): as above
Description: Its activity was then cross-validated by performing additional AlphaScreening™ tests using GST-E6 and His6-E6AP as substrates. […] The activity of these two inhibitors against E6-Caspase 8 binding were evaluated in parallel for a head to head comparison.
The selected compound(s) were then cross-validated with a related but different primary screen assay. Specifically, the caspase 8 used in the primary screen was replaced with E6AP and the inhibitory activity was evaluated against E6 binding to E6AP (E6-E6AP) using the same steps as in the AlphaScreen™ protocol described above.

[4] = system: HPV- (SCC19, SCC29) and HPV+ (SCC47, SCC104, SCC152) HNSCC cell lines; assay: Sensitization of HNSCC cell lines to photon radiation; type: cell-based; conditions: radiation 0-4Gy followed by inhibitor; DER10
Description: The dose enhancement ratio for 10% survival (DER10) was calculated as follows: DER10=(Dose correlated with 10% survival fraction in radiation-treated cells)/(Dose correlated with 10% survival fraction in radiation and inhibitor treated cells).
CCDP, Cetuximab, and GA-OH were evaluated for their ability to sensitize HNSCC cell lines to photon radiation.
Colonies were counted after 14-21 days and normalized to vehicle control and survival analysis was performed.
Sensitization of an additional HPV^+ cell line to radiation by CDDP, Cetuximab and GA-OH was evaluated.

[5] = system: HPV+ (SCC47, SCC090, SCC104, SCC152) and HPV- (SCC19, SCC29, SCC49, SCC84) HNSCC cell lines; assay: MTT cell viability, HNSCC panel; type: cell-based
Description: While SAR studies using the SCC104 cell line provided evidence of the activity of the analogs, further studies were conducted to assess not just the potency, but also the selectivity. As a step towards that goal, the efficacy of GA-OH was evaluated in a panel containing both HPV^+ and HPV^− HNSCC cell lines using MTT cell viability assays. Four HPV^+ cell lines (SCC47, SCC090, SCC104, SCC152) and four HPV^− cell lines (SCC19, SCC29, SCC49, SCC84) were utilized. GA-OH behaved dose dependently in cell lines both with or without HPV. […] FIGS. 7A-7C are graphical representations of the sensitivity of HPV^+ cell lines and HPV^− cell lines to GA-OH-mediated growth inhibition. FIG. 7A is a graphical representation of the cell growth inhibition of HNSCC HPV^+ and HPV^− cell lines by GA-OH (+ and closed shapes represent HPV^+ cell lines and − and open shapes the HPV^− cell lines). […] These cells were good controls, as HPV is an established causative agent in CC carcinogenesis. Two HPV^+ cell lines, SiHa and CaSki were selected as the positive controls and the Saos-2 cell line was used as an HPV-negative control. […] FIG. 7B is a graphical representation of the cell growth inhibition of cervical cancer HPV^+ and HPV^− cell lines by GA-OH. HPV^+ cell lines display higher sensitivity than do HPV^− cell lines as shown by the leftwards shift of the HPV^+ curves (SCC47, 90, 104, 152 in FIG. 7A and SiHa and CaSki in FIG. 7B).
as §2, with “All experiments were repeated at least three times (three biological replicates, carried out on different days). Data presented are from a representative experiment.” left out

[6] = toxicities to organs only at high concentrations; cited from earlier work

## CC(C)=CCCC1(C)CC(O)c2c(O)c3c(c(CC=C(C)C)c2O1)OC12C(=CC4CC1C(C)(C)OC2(C/C=C(\C)C(=O)O)C4=O)C3=O (stereo not shown) [analog #5, neo-gambogic acid]
[1]
  rank among highest IC50s relative to the parent compound: fourth

## CC(=O)Oc1c2c(c(CC=C(C)C)c3c1C(=O)C1=C[C@@H]4CC5C(C)(C)OC(C/C=C(\C)C(=O)O)(C4=O)[C@@]15O3)OC(C)(CCC=C(C)C)C=C2 (stereo partly shown) [analog #8, acetyl iso-gambogic acid]
[2]
  inhibition of E6-caspase 8 binding relative to GA: did not significantly affect the activity
[1]; SCC104, 24 hr
  potency in MTT assay: diminished activity

## CC(C)=CCCC1(C)C=Cc2c(O)c3c(c(CC=C(C)C)c2O1)O[C@]12C(=CC4C[C@H]1C(C)(C)OC2(CC=C(C)C)C4=O)C3=O (stereo partly shown) [analog #6, gambogin]
[1]
  rank among highest IC50s relative to the parent compound: first

## O=c1c(O)c(-c2cc(O)c(O)c(O)c2)oc2cc(O)cc(O)c12 [myricetin, reference compound]
[2]; read-out: IC50 against E6-Caspase 8
  IC50: 4.6 µM
[3]
  IC50: 5600 nM

## CC(C)=CCC/C(C)=C/Cc1c(O)c(CC=C(C)C)c2c(c1O)C(=O)C1=C[C@@H]3C[C@H]4C(C)(C)O[C@@](C/C=C(/C)C(=O)O)(C3=O)[C@@]14O2 [analog #3, gambogenic acid]
[1]
  rank among highest IC50s relative to the parent compound: third

## CC(C)=CCC[C@]1(C)C=Cc2c(O)c3c(c(CC=C(C)C)c2O1)O[C@]12C(=C[C@@H]4CC1C(C)(C)O[C@@]2(C/C=C(/C)C(N)=O)C4=O)C3=O [analog #4, gambogic amide]
[2]
  inhibition of E6-caspase 8 binding relative to GA: did not significantly affect the activity

## CC(C)=CCc1c2c(c(O)c3c1O[C@]14C(=C[C@@H]5C[C@H]1C(C)(C)O[C@@]4(C/C=C(/C)C(=O)O)C5=O)C3=O)C=CC(C)(C)O2 [analog #2, morellic acid]
[2]
  inhibition of E6-caspase 8 binding relative to GA: did not significantly affect the activity

## [NH2][Pt]([NH2])([Cl])[Cl] [CDDP, cisplatin, reference compound]
[4]
  sensitization to photon radiation: greatest sensitization

## CC(C)=CCC[C@]1(C)C=Cc2c(O)c3c(c(CC=C(C)C)c2O1)O[C@]12C(=C[C@@H]4C[C@H]1C(C)(C)O[C@@]2(C/C=C(/C)C(=O)O)C4=O)C3=O [gambogic acid]
[2]; 11 compounds that passed counter-screening, read-out: IC50 (μM) against E6-Caspase 8 binding
  IC50: 2 µM
[2]; head to head comparison gambogic acid vs myricetin, read-out: IC50 against E6-Caspase 8
  IC50: 1.9 µM
[5]
  potency and selectivity for HPV+ versus HPV- cells: significantly more sensitive
[3]
  IC50: 1700 nM
[6]
  tolerability in animal studies: relatively tolerable

## CC(C)=CCc1c2c(c(O)c3c1OC14C(=CC5CC1C(C)(C)OC4(C/C=C(\C)CO)C5=O)C3=O)C=CC(C)(C)O2 (stereo not shown) [analog #7, iso morellinol]
[2]
  inhibition of E6-caspase 8 binding relative to GA: did not significantly affect the activity
